Test results reported in ChEMBL document CHEMBL1201862, “PubChem BioAssay data set” (2004).
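Assay format: 96-well plates, 48-hour exposure. GI50: concentration for 50% inhibition of growth.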 Activity calls are given as the source filed them. No stated cut-off is given here; in the data, active = GI50 up to about 1.1 µM and inactive = higher.

Columns and labels:
Assay in all cases: NCI tumour cell line growth inhibition, 48 h
[1] = tested on: SF-268
[2] = tested on: TK-10
[3] = tested on: SK-MEL-28
[4] = tested on: OVCAR-3
[5] = tested on: SK-MEL-2
[6] = tested on: HT-29
[7] = tested on: SF-539
[8] = tested on: SNB-19
[9] = tested on: CCRF-CEM
[10] = tested on: HCT-15
[11] = tested on: LOX IMVI
[12] = tested on: A549
[13] = tested on: COLO 205
[14] = tested on: U-251
[15] = tested on: MOLT-4
[16] = tested on: OVCAR-4
[17] = tested on: SK-OV-3
[18] = tested on: A498
[19] = tested on: NCI-H226
[20] = tested on: RXF 393
[21] = tested on: M19-MEL
[22] = tested on: SNB-78
[23] = tested on: SW-620
[24] = tested on: HCT-116
[25] = tested on: KM12
[26] = tested on: HL-60
[27] = tested on: SF-295
[28] = tested on: UACC-62
[29] = tested on: XF498
[30] = tested on: Malme-3M
[31] = tested on: HOP-92
[32] = tested on: NCI-H460
[33] = tested on: OVCAR-8
[34] = tested on: UO-31
[35] = tested on: DMS-114
[36] = tested on: SR
[37] = tested on: ACHN
[38] = tested on: RPMI-8226
[39] = tested on: SN12C
[40] = tested on: KM-20L2
[41] = tested on: EKVX
[42] = tested on: DLD-1
[43] = tested on: OVCAR-5
[44] = tested on: UACC-257
[45] = tested on: K562
[46] = tested on: SK-MEL-5
[47] = tested on: SNB-75
[48] = tested on: HOP-18
[49] = tested on: NCI-H522
[50] = tested on: LXFL 529
[51] = tested on: M14
[52] = tested on: DMS-273
[53] = tested on: IGROV-1
[54] = tested on: 786-0
[55] = tested on: NCI-H23
[56] = tested on: CAKI-1
[57] = tested on: HCC 2998
[58] = tested on: HOP-62
[59] = tested on: RXF 631

NC(CO)c1ccc(OCc2ccccc2)cc1 (centres undefined)
GI50 [1]: > 100 µM (inactive)
GI50 [2]: > 100 µM (inactive)
GI50 [3]: > 100 µM (inactive)
GI50 [4]: > 100 µM (inactive)
GI50 [5]: > 100 µM (inactive)
GI50 [6]: > 100 µM (inactive)
GI50 [7]: > 100 µM (inactive)
GI50 [8]: > 63.7 µM (inactive)
GI50 [9]: 40.6 µM (inactive)
GI50 [10]: > 91.8 µM
GI50 [11]: 47.3 µM (inactive)
GI50 [12]: > 100 µM (inactive)
GI50 [13]: > 100 µM (inactive)
GI50 [14]: > 100 µM (inactive)
GI50 [15]: 27.5 µM (inactive)
GI50 [16]: > 92.7 µM (inactive)
GI50 [17]: > 100 µM (inactive)
GI50 [18]: > 100 µM (inactive)
GI50 [19]: > 100 µM (inactive)
GI50 [20]: > 73.5 µM (inactive)
GI50 [21]: > 100 µM (inactive)
GI50 [22]: > 100 µM (inactive)
GI50 [23]: 38.8 µM (inactive)
GI50 [24]: > 78.7 µM (inactive)
GI50 [25]: > 100 µM (inactive)
GI50 [26]: 24.4 µM (inactive)
GI50 [27]: > 100 µM (inactive)
GI50 [28]: > 70.8 µM (inactive)
GI50 [29]: 76.9 µM (inactive)
GI50 [30]: > 100 µM (inactive)
GI50 [31]: 27.7 µM (inactive)
GI50 [32]: > 100 µM (inactive)
GI50 [33]: > 100 µM (inactive)
GI50 [34]: 44.3 µM (inactive)
GI50 [35]: > 100 µM (inactive)
GI50 [36]: 31.2 µM (inactive)
GI50 [37]: > 100 µM (inactive)
GI50 [38]: > 100 µM (inactive)
GI50 [39]: > 91.8 µM (inactive)
GI50 [40]: > 100 µM (inactive)
GI50 [41]: 89.3 µM (inactive)
GI50 [42]: > 100 µM (inactive)
GI50 [43]: > 100 µM (inactive)
GI50 [44]: > 100 µM (inactive)
GI50 [45]: > 100 µM (inactive)
GI50 [46]: > 100 µM (inactive)
GI50 [47]: 20.3 µM (inactive)
GI50 [48]: > 100 µM (inactive)
GI50 [49]: 42 µM (inactive)
GI50 [50]: > 100 µM (inactive)
GI50 [51]: > 100 µM (inactive)
GI50 [52]: > 100 µM (inactive)
GI50 [53]: > 100 µM (inactive)
GI50 [54]: > 100 µM (inactive)
GI50 [55]: > 100 µM (inactive)
GI50 [56]: > 53.7 µM (inactive)
GI50 [57]: > 100 µM (inactive)
GI50 [58]: > 100 µM (inactive)

C#Cc1c(C)c(/C=C/C(C)=C/C=C/C(C)=C/C(=O)OC)n(C)c1C
GI50 [1]: > 100 µM (inactive)
GI50 [2]: > 100 µM (inactive)
GI50 [3]: > 100 µM (inactive)
GI50 [4]: > 100 µM (inactive)
GI50 [5]: > 100 µM (inactive)
GI50 [6]: > 100 µM (inactive)
GI50 [7]: > 100 µM (inactive)
GI50 [59]: > 100 µM (inactive)
GI50 [8]: > 100 µM (inactive)
GI50 [9]: > 100 µM (inactive)
GI50 [10]: > 100 µM
GI50 [11]: > 100 µM (inactive)
GI50 [12]: > 100 µM (inactive)
GI50 [13]: > 100 µM (inactive)
GI50 [14]: > 100 µM (inactive)
GI50 [15]: > 100 µM (inactive)
GI50 [16]: > 100 µM (inactive)
GI50 [17]: 0.428 µM (active)
GI50 [21]: > 100 µM (inactive)
GI50 [22]: > 100 µM (inactive)
GI50 [23]: > 100 µM (inactive)
GI50 [24]: > 100 µM (inactive)
GI50 [25]: > 100 µM (inactive)
GI50 [26]: > 100 µM (inactive)
GI50 [27]: > 100 µM (inactive)
GI50 [28]: 62.5 µM (inactive)
GI50 [29]: > 100 µM (inactive)
GI50 [30]: > 100 µM (inactive)
GI50 [31]: > 100 µM (inactive)
GI50 [32]: > 100 µM (inactive)
GI50 [33]: > 100 µM (inactive)
GI50 [34]: > 100 µM (inactive)
GI50 [35]: > 100 µM (inactive)
GI50 [36]: > 100 µM (inactive)
GI50 [37]: > 100 µM (inactive)
GI50 [38]: > 100 µM (inactive)
GI50 [40]: > 100 µM (inactive)
GI50 [41]: > 100 µM (inactive)
GI50 [42]: > 100 µM (inactive)
GI50 [43]: > 100 µM (inactive)
GI50 [44]: > 100 µM (inactive)
GI50 [45]: > 100 µM (inactive)
GI50 [47]: 44.5 µM (inactive)
GI50 [49]: > 100 µM (inactive)
GI50 [50]: > 100 µM (inactive)
GI50 [51]: > 100 µM (inactive)
GI50 [53]: > 100 µM (inactive)
GI50 [54]: > 100 µM (inactive)
GI50 [55]: > 100 µM (inactive)
GI50 [56]: > 100 µM (inactive)
GI50 [58]: > 100 µM (inactive)
